Measurements from ChEMBL document CHEMBL4020749, “Phenanthridin-6-one derivatives as the first class of non-steroidal pharmacological chaperones for Niemann-Pick disease type C1 protein” (Bioorg Med Chem Lett, 2017).
Active and inactive are the calls of the source. The rule behind the calls is not given here.

Key:
[1] = target: NPC intracellular cholesterol transporter 1 (Homo sapiens, UniProt O15118, I1061T); test: (§1) Chaperone activity at FLAG/GFP-tagged NPC1 I1061T mutant (unknown origin) expressed in HEK293 cells assessed as increase in localization of protein mutant in late endosomes after 24 hrs by Hoechst 33342 staining based fluorescence microscopic analysis; assay type: cell-based
[2] = Solubility of the compound in DMEM medium at 10 uM; assay type: physicochemical
[3] = system: T1, NPC intracellular cholesterol transporter 1 (Homo sapiens), O15118 [I1061T]; test: Chaperone activity at FLAG/GFP-tagged NPC1 I1061T mutant (unknown origin) expressed in HEK293 cells assessed as increase in localization of protein mutant in late endosomes at 30 uM after 24 hrs by Hoechst 33342 staining based fluorescence microscopic analysis; assay type: cell-based
T1 sequence (whole entry): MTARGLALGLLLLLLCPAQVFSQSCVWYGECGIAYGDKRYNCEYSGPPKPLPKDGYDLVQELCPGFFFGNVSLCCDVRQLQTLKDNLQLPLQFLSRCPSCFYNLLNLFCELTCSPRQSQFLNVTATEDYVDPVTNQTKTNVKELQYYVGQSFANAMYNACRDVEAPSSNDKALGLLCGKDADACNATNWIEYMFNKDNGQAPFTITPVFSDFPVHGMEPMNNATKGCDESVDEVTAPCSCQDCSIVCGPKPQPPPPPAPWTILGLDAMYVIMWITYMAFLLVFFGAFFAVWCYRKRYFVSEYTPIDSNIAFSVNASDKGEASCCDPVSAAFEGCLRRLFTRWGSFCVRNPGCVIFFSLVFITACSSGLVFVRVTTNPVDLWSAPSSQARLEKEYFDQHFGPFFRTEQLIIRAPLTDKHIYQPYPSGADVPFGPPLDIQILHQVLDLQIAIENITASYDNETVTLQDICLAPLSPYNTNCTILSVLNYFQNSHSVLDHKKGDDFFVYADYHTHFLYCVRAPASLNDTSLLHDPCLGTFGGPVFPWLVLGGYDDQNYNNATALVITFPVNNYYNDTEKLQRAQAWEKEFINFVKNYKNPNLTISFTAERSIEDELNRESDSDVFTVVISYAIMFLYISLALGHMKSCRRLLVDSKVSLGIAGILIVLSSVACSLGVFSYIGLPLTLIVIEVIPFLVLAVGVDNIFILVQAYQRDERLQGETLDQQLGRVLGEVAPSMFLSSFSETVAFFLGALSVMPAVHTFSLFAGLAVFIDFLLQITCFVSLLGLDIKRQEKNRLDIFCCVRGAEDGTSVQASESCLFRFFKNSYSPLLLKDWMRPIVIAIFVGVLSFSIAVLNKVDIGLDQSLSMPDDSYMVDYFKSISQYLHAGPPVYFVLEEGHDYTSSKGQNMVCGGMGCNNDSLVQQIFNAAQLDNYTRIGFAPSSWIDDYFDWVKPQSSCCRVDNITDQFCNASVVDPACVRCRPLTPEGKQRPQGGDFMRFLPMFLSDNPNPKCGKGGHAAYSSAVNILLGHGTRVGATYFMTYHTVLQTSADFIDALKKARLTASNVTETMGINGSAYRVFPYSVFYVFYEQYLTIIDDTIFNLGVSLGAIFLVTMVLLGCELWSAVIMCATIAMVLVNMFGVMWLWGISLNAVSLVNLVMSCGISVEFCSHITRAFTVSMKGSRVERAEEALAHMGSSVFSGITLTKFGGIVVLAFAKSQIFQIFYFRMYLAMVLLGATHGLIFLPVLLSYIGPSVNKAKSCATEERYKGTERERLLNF

[4] = system: T1, NPC intracellular cholesterol transporter 1 (Homo sapiens), O15118 [I1061T]; test: as §1; assay type: cell-based
[5] = system: T1, NPC intracellular cholesterol transporter 1 (Homo sapiens), O15118 [I1061T]; test: Stabilization of FLAG/GFP-tagged NPC1 I1061T mutant (unknown origin) expressed in HEK293 cells assessed as up regulation of NPC1 I1061T mutant expression after 24 hrs by Hoechst 33342 staining based fluorescence microscopic analysis; assay type: cell-based
HEK293 [6] = test: Stabilization of FLAG/GFP-tagged human NPC1L1 L1072T/I1168T double mutant expressed in HEK293 cells assessed as up regulation of NPC1L1 L1072T/I1168T double mutant expression at 3 to 30 uM after 24 hrs fluorescence microscopic analysis; assay type: cell-based
HEK293 [7] = test: Chaperone activity at FLAG/GFP-tagged human NPC1L1 L1072T/I1168T double mutant expressed in HEK293 cells assessed as localization of protein mutant in plasma membrane at 10 uM after 24 hrs fluorescence microscopic analysis; assay type: cell-based
[8] = system: T1, NPC intracellular cholesterol transporter 1 (Homo sapiens), O15118 [I1061T]; test: Chaperone activity at FLAG/GFP-tagged NPC1 I1061T mutant (unknown origin) expressed in HEK293 cells assessed as increase in localization of protein mutant in late endosomes at 10 uM after 24 hrs by Hoechst 33342 staining based fluorescence microscopic analysis; assay type: cell-based
[9] = Solubility of the compound in DMEM medium at 30 uM; assay type: physicochemical
HEK293 [10] = test: Chaperone activity at FLAG/GFP-tagged human NPC1L1 L1072T/I1168T double mutant expressed in HEK293 cells assessed as localization of protein mutant in plasma membrane at 3 uM after 24 hrs fluorescence microscopic analysis; assay type: cell-based
[11] = system: T1, NPC intracellular cholesterol transporter 1 (Homo sapiens), O15118 [I1061T]; test: Chaperone activity at FLAG/GFP-tagged NPC1 I1061T mutant (unknown origin) expressed in HEK293 cells assessed as increase in localization of protein mutant in late endosomes at 1 uM after 24 hrs by Hoechst 33342 staining based fluorescence microscopic analysis; assay type: cell-based

| Activity [3] | EC50 ([1]; read-out: EC50) | SMILES | also measured |
| --- | --- | --- | --- |
| – | – | CCCCCn1c(=O)c2ccccc2c2ccc(C(N)=O)cc21 | EC50 [1]: Not Active; solubility [2]: Insoluble |
| inactive | – | CCCCn1c(=O)c2ccccc2c2cc(C(=O)N3CCOCC3)ccc21 | – |
| – | 16 µM | C[Si](C)(C)CCOCn1c(=O)c2ccccc2c2cc(C(N)=O)ccc21 | – |
| – | > 3 µM | CCCCCCCn1c(=O)c2ccccc2c2cc(C(N)=O)ccc21 | solubility [2]: Insoluble |
| inactive | – | CCCCn1c(=O)c2ccccc2c2cc(C(=O)NC3CCCC3)ccc21 | – |
| – | 14 µM | CCCCn1c(=O)c2ccccc2c2cc(NC(C)=O)ccc21 | – |
| – | – | CC(C)n1c(=O)c2ccccc2c2cc(C(N)=O)ccc21 | EC50 [1]: Not Active |
| – | > 30 µM | CCCCn1c(=O)c2ccccc2c2cc(C(C)=O)ccc21 | – |
| – | > 30 µM | CCCCn1c(=O)c2ccccc2c2cc(O)ccc21 | – |
| inactive | – | CCCCn1c(=O)c2ccccc2c2cc(C(=O)NC(C)C)ccc21 | – |
| – | > 30 µM | Cn1c(=O)c2ccccc2c2cc(C(N)=O)ccc21 | – |
| inactive | – | CCCCn1c(=O)c2ccccc2c2ccccc21 | – |
| – | 14 µM | CCCCn1c(=O)c2ccccc2c2cc(NS(C)(=O)=O)ccc21 | – |
| inactive | – | CCCCn1c(=O)c2ccccc2c2cc(C(F)(F)F)ccc21 | – |
| inactive | – | CCCCn1c(=O)c2ccccc2c2cc(C(=O)N(CC)CC)ccc21 | – |
| – | > 30 µM | CCn1c(=O)c2ccccc2c2cc(C(N)=O)ccc21 | – |
| inactive | – | CCCCNC(=O)c1ccccc1-c1cccc(C(N)=O)c1 | – |
| inactive | – | CCCCn1c(=O)c2ccccc2c2cc(OC(=O)N3CCOCC3)ccc21 | – |
| inactive | – | CCCCN1C(=O)CCc2cc(C(N)=O)ccc21 | – |
| inactive | – | CCCCn1c(=O)c2ccccc2c2cc(NC(N)=O)ccc21 | – |

| Activity [3] | EC50 ([1]; read-out: EC50) | SMILES | also measured |
| --- | --- | --- | --- |
| – | – | CCCCCn1c(=O)c2ccccc2c2c(C(N)=O)cccc21 | EC50 [1]: Not Active; solubility [2]: Insoluble |
| inactive | – | CCCCn1c(=O)c2ccccc2c2cc(C(=O)NC3CCCCC3)ccc21 | – |
| – | 30 µM | CCCCn1c(=O)c2c(c3cc(C(N)=O)ccc31)CCCC2 | – |
| inactive | – | O=S(=O)(c1ccccc1)N(CC(F)(F)F)c1ccc(C(O)(C(F)(F)F)C(F)(F)F)cc1 | – |
| inactive | – | CCCCn1c(=O)c2ccccc2c2cc(C(=O)N3CCCCC3)ccc21 | – |
| – | > 30 µM | CCCCn1c(=O)c2ccccc2c2cc(C(=O)N(C)C)ccc21 | – |
| – | > 30 µM | CCCCn1c(=O)c2ccccc2c2cc(C(=O)NC)ccc21 | – |
| inactive | – | CCCCn1c(=O)c2ccccc2c2cc(N)ccc21 | – |
| inactive | – | CCCCn1c(=O)c2ccccc2c2cc(C(=O)NC3CC3)ccc21 | – |
| inactive | – | O=C(O)Cc1cccc(OCCCN(Cc2cccc(C(F)(F)F)c2Cl)CC(c2ccccc2)c2ccccc2)c1 | – |
| inactive | – | CCCCn1c(=O)c2ccccc2c2cc(C(=O)O)ccc21 | – |
| – | 11 µM | CCCCn1c(=O)c2ccccc2c2cc(C(N)=O)ccc21 | – |
| inactive | – | CCCCn1c(=O)c2ccccc2c2cc(C(=O)NC(C)(C)C)ccc21 | – |
| – | – | NC(=O)c1ccc2c(c1)c1ccccc1c(=O)n2CCO | EC50 [1]: Not Active |
| – | 4.2 µM | CCCCCn1c(=O)c2ccccc2c2cc(C(N)=O)ccc21 | Activity [4]: Dose-dependent effect; Activity [5]: Dose-dependent effect; Activity (HEK293 [6]): inactive; Activity (HEK293 [7]): inactive |
| – | 19 µM | CCCn1c(=O)c2ccccc2c2cc(C(N)=O)ccc21 | – |
| – | > 30 µM | CCCCn1c(=O)c2ccccc2c2cc(C(=O)N(CCO)CCO)ccc21 | – |
| – | > 30 µM | CCCCn1c(=O)c2ccccc2c2cc(C(C)O)ccc21 (stereo not given) | – |
| – | – | CCCCn1c(=O)c2c(c3cc(C(N)=O)ccc31)CCCCCC2 | Activity [8]: inactive; solubility [9]: Insoluble |
| inactive | – | CCCCn1c(=O)c2ccccc2c2cc(C(=O)N3CCCC3)ccc21 | – |

| Activity [3] | EC50 ([1]; read-out: EC50) | SMILES | also measured |
| --- | --- | --- | --- |
| – | – | COCCn1c(=O)c2ccccc2c2cc(C(N)=O)ccc21 | EC50 [1]: Not Active |
| inactive | – | CCCCn1c(=O)c2ccccc2c2cc(C(=O)NCc3ccccc3)ccc21 | – |
| – | – | C[C@H](CCC(=O)N(C)C)[C@H]1CC[C@H]2[C@@H]3CC=C4C[C@@H](OC(=O)N(CCO)CCO)CC[C@]4(C)[C@H]3CC[C@]12C | Activity (HEK293 [10]): Active |
| inactive | – | CCCCn1c(=O)c2ccccc2c2cc(N(C)C(C)=O)ccc21 | – |
| – | > 30 µM | CCCCn1c(=O)c2ccccc2c2cc(CO)ccc21 | – |
| inactive | – | CCCCn1c(=O)c2c(c3cc(C(N)=O)ccc31)CCC2 | – |
| inactive | – | CCCCn1c(=O)c2ccccc2c2cc(C(O)(C(F)(F)F)C(F)(F)F)ccc21 | – |
| inactive | – | CCCC(=O)N1CC2=C(CCCC2)c2cc(C(N)=O)ccc21 | – |
| – | > 3 µM | CCCCCCn1c(=O)c2ccccc2c2cc(C(N)=O)ccc21 | solubility [2]: Insoluble |
| – | 3.6 µM | NC(=O)c1ccc2c(c1)c1ccccc1c(=O)n2CC1CCCCC1 | solubility [9]: Insoluble |
| – | > 30 µM | C=CCn1c(=O)c2ccccc2c2cc(C(N)=O)ccc21 | – |
| inactive | – | CCCCn1c(=O)c2ccccc2c2cc(NC(=O)C(F)(F)F)ccc21 | – |
| inactive | – | CCCCn1c(=O)c2ccccc2c2cc(C)ccc21 | – |
| – | – | CCCCCn1c(=O)c2ccccc2c2cccc(C(N)=O)c21 | EC50 [1]: Not Active; solubility [9]: Insoluble |
| inactive | – | CCCCn1c(=O)c2ccccc2c2cc(F)ccc21 | – |
| – | 0.15 µM | CC(C)CCC[C@@H](C)[C@H]1CC[C@H]2[C@@H]3C[C@@H](O)[C@@]4(O)C[C@@H](OCC(=O)N5CCOCC5)CC[C@]4(C)[C@H]3CC[C@]12C | Activity [11]: Active |
| inactive | – | CCCCN1C(=O)c2ccccc2Oc2cc(C(N)=O)ccc21 | – |
| – | 13 µM | CCCCn1c(=O)c2c(c3cc(C(N)=O)ccc31)CCCCC2 | – |
